In article PMC11489056, “Molecular mechanism of a triazole-containing inhibitor of Mycobacterium tuberculosis DNA gyrase” (iScience, 2024):
Values after ≈ are worked out from the molar mass of the structure shown. Read-outs that look alike come from different tables or passages of the source.

Columns and labels:
physchem [1] = format: physicochemical; conditions: pH 7.4, aqueous buffer, kinetic from dmso stock
Experimental: 10μL of a 10 mM solution in DMSO of the compound are diluted in 490 μL of PBS pH 7.4 in Matrix tube (in triplicate) or organic solvent (ACN, MeOH) in Matrix tube (in triplicate). The tubes are gently shaken 24h at room temperature. Then the tubes are centrifuged for 5 minutes at 4000 rpm and filtered over 0.45 μm filters (Millex-LH Millipore). 20 μL of each tube are diluted in 180 μL of MeOH. Analysis is performed thanks to a UPLC-MS/MS system (Waters) under SIM detection using the parameters optimized for each compound. HPLC analysis was performed using an Aquity C18 (50x2.1 mm, 1.8 μm); the gradient and the mobile phase (flow rate 600 μL/min^-1) used are determined in order to detect the compound of interest with satisfying retention time and peak shape. Acquisition and analysis of data were performed with Masslynx software. The solubility is determined by the ratio of mass signal area PBS/ organic solvent.

physchem [2] = format: physicochemical; conditions: pH 7.4
Experimental: 40 μL of a 10 mM solution in DMSO of the compound were diluted in 1.960 mL of a 1/1 octanol/PBS at pH 7.4 solution. The mixture was gently shaken 2h at room temperature. 20 μL of each solution was diluted in 480 μμL of MeOH and analyzed by LC-MS. Each compound is tested in triplicate. Analysis is performed thanks to a UPLC-MS/MS triple-quadrupole system (Waters) under SIM or MRM detection using the parameters optimized for each compound. HPLC analysis was performed using an Aquity C18 (50x2.1 mm, 1.8 μm); the gradient and the mobile phase (flow rate 600μL/min^-1) used are determined in order to detect the compound of interest with satisfying retention time and peak shape. Acquisition and analysis of data were performed with MS Workstation™ software (version 6.3.0 or higher). LogD was determined as the logarithm of the ratio of concentrations of product in octanol and PBS, determined by mass signals.

E. coli = test: MIC, agar dilution method, ESKAPE strains; format: cell-based, Escherichia coli
S. aureus = test: MIC, agar dilution method, ESKAPE strains; format: cell-based; conditions: Staphylococcus aureus
[3] = molecular target: wild-type E. coli DNA gyrase (Escherichia coli, UniProt P0AES4+P0AES6); test: biochemical; conditions: read-out: IC50 E. coli WT
A. baumannii = test: MIC, agar dilution method, ESKAPE strains; format: cell-based; conditions: Acinetobacter baumannii
E. faecium = test: MIC, agar dilution method, ESKAPE strains; format: cell-based; conditions: Enterococcus faecium; read-out: MIC E. faecium MDR(5)
[4] = tested on: Mycobacterium tuberculosis H37Rv WT; test: microbe, parasite or virus in culture; format: cell-based
wild-type Mtb gyrase = molecular target: T1, wild-type Mtb gyrase (Mycobacterium tuberculosis, UniProt P9WG45+P9WG47); format: biochemical
T1 construct: His tag (TEV-cleavable) (N, cleaved yes); made in house; host or cells: E. coli Bli5 (DE3)

[5] = tested on: Corynebacterium glutamicum (Cglu) WT; test: MIC on Cglu WT; format: cell-based
Mtb GyrBA fusion protein [6] = molecular target: T2, Mtb GyrBA fusion protein (Mycobacterium tuberculosis, UniProt P9WG45+P9WG47); test: Cleavage complex persistence (DNA cleavage-religation assay); format: biochemical
T2 construct: His6 (TEV-cleavable) (N, cleaved yes); made in house; host or cells: E. coli Bli5 (DE3)

Mtb GyrBA fusion protein [7] = molecular target: T2, Mtb GyrBA fusion protein; test: DNA cleavage competition with ciprofloxacin; format: biochemical
Mtb GyrBA fusion protein [8] = molecular target: T2, Mtb GyrBA fusion protein; test: DNA cleavage assay on pBR322; format: biochemical; conditions: pBR322 5 nM, Mtb gyrase 200 nM, 5 μM inhibitor
K. pneumoniae = test: MIC, agar dilution method, ESKAPE strains; format: cell-based; conditions: Klebsiella pneumoniae
[9] = tested on: wild-type C. glutamicum ATCC1332 strain; test: Bacterial cell morphology (cell length) by microscopy; format: cell-based, Corynebacterium glutamicum; conditions: 10x MIC, 24h, vs DMSO control
Mtb = conditions: Figure 1F; cited from earlier work
Mtb gyrase = conditions: Figure 1E, GlaxoSmithKline MGIs; cited from earlier work
[10] = Escherichia coli, E. coli 10385 NDM-1, read-out: MIC E. coli MDR(2)
[11] = Escherichia coli, read-out: MIC E. coli WT(1)
[12] = read-out: MIC A. baumannii MDR(6)
[13] = Escherichia coli, 2 h, read-out: MIC E. coli WT
[14] = Escherichia coli, ATCC25922, read-out: MIC
[15] = Escherichia coli, E. coli 9003, BLSE, read-out: MIC
[16] = A. baumannii 09010, VEB-1, read-out: MIC

COc1ccc2nccc(-n3cc(CCNCc4ccc5c(c4)NC(=O)CO5)nn3)c2c1 [BDM71346 (9c)]
solubility at 24 h (physchem [1]): 0.0769 mg/mL (≈ 179 µM)
logD (physchem [2]): 1.32
MIC (E. coli; [10]): 0.5 mg/L (≈ 1.16 µM)
MIC (E. coli; [11]): 8 mg/L (≈ 18.6 µM)
MIC (S. aureus; read-out: MIC S. aureus MDR(4)): 32 mg/L (≈ 74.3 µM)
MIC (S. aureus; read-out: MIC S. aureus WT(3)): 16 mg/L (≈ 37.2 µM)
IC50 [3]: 0.78 µM
MIC (A. baumannii; [12]): 4 mg/L (≈ 9.29 µM)
MIC (E. faecium): 1 mg/L (≈ 2.32 µM)

COc1ccc2nccc(-n3cc(CCNC(=O)c4ccc5c(c4)NC(=O)CS5)nn3)c2c1 [BDM71367 (11a)]
solubility at 24 h (physchem [1]): < 0.00017 mg/mL
logD (physchem [2]): > 2.65
MIC (E. coli; [10]): 0.25 mg/L (≈ 0.543 µM)
MIC (E. coli; [11]): 8 mg/L (≈ 17.4 µM)
MIC (S. aureus; read-out: MIC S. aureus MDR(4)): 4 mg/L (≈ 8.69 µM)
MIC (S. aureus; read-out: MIC S. aureus WT(3)): 4 mg/L (≈ 8.69 µM)
MIC (A. baumannii; [12]): 4 mg/L (≈ 8.69 µM)
MIC (E. faecium): 8 mg/L (≈ 17.4 µM)

COc1ccc2nccc(-n3cc(CCNCc4ccc5c(c4)NC(=O)CS5)nn3)c2c1 [BDM71368 (9a)]
solubility at 24 h (physchem [1]): 0.0847 mg/mL (≈ 190 µM)
logD (physchem [2]): 1.81
MIC (E. coli; [13]): 1 mg/L (≈ 2.24 µM)
MIC (E. coli; [10]): ≤ 0.06 mg/L
MIC (E. coli; [11]): 1 mg/L (≈ 2.24 µM)
MIC [4]: 1 mg/L (≈ 2.24 µM)
MIC (S. aureus; read-out: MIC S. aureus MDR(4)): 1 mg/L (≈ 2.24 µM)
MIC (S. aureus; read-out: MIC S. aureus WT(3)): 1 mg/L (≈ 2.24 µM)
IC50 lower than ciprofloxacin (wild-type Mtb gyrase): 10 fold
IC50 lower than gepotidacin (wild-type Mtb gyrase): 6 fold
MIC [5]: 0.5 mg/L (≈ 1.12 µM)
IC50 [3]: 1.17 µM
MIC (A. baumannii; [12]): 1 mg/L (≈ 2.24 µM)
MIC (E. faecium): 0.5 mg/L (≈ 1.12 µM)

COc1ccc2nccc(-n3cc(CCNCc4ccc5c(c4)OCCO5)nn3)c2c1 [BDM71369 (9b)]
solubility at 24 h (physchem [1]): > 0.0835 mg/mL
logD (physchem [2]): 1.21
MIC (E. coli; [10]): 1 mg/L (≈ 2.4 µM)
MIC (E. coli; [11]): 32 mg/L (≈ 76.7 µM)
MIC (S. aureus; read-out: MIC S. aureus MDR(4)): 1 mg/L (≈ 2.4 µM)
MIC (S. aureus; read-out: MIC S. aureus WT(3)): 1 mg/L (≈ 2.4 µM)
IC50 [3]: 0.13 µM
MIC (A. baumannii; [12]): 32 mg/L (≈ 76.7 µM)
MIC (E. faecium): 0.25 mg/L (≈ 0.599 µM)

COc1ccc2nccc(-n3cc(CCNC(=O)c4ccc5c(c4)OCCO5)nn3)c2c1 [BDM71373 (11b)]
solubility at 24 h (physchem [1]): 0.0102 mg/mL (≈ 23.6 µM)
logD (physchem [2]): 2.35
MIC (E. coli; [10]): 32 mg/L (≈ 74.2 µM)
MIC (E. coli; [11]): ≥ 32 mg/L
MIC (S. aureus; read-out: MIC S. aureus MDR(4)): ≥ 32 mg/L
MIC (S. aureus; read-out: MIC S. aureus WT(3)): ≥ 32 mg/L
MIC (A. baumannii; [12]): 32 mg/L (≈ 74.2 µM)
MIC (E. faecium): ≥ 32 mg/L

COc1ccc2nccc(-n3cc(CCNCc4ccc5c(c4)NC(=O)CS5)nn3)c2n1 [BDM71403 (10a)]
solubility at 24 h (physchem [1]): 0.044 mg/mL (≈ 98.3 µM)
difference in complex half-life versus gepotidacin (Mtb GyrBA fusion protein [6]): 10 fold
logD (physchem [2]): 1.92
MIC (E. coli): 0.5 mg/L (≈ 1.12 µM)
MIC (E. coli; [13]): 1 mg/L (≈ 2.23 µM)
MIC (E. coli; [14]): 1 mg/L (≈ 2.23 µM)
MIC (E. coli; [15]): 1 mg/L (≈ 2.23 µM)
MIC (E. coli; Escherichia coli, E. coli 10269, NDM-1, read-out: MIC): 1 mg/L (≈ 2.23 µM)
MIC (E. coli; Escherichia coli, E. coli 10273, KPC-2, read-out: MIC): 1 mg/L (≈ 2.23 µM)
MIC (E. coli; Escherichia coli, E. coli 10385, NDM-1, read-out: MIC): < 0.06 mg/L
MIC (E. coli; [10]): ≤ 0.06 mg/L
MIC (E. coli; Escherichia coli, E. coli 10386, NDM-1, read-out: MIC): 1 mg/L (≈ 2.23 µM)
MIC (E. coli; Escherichia coli, read-out: MIC): 1 mg/L (≈ 2.23 µM)
MIC (E. coli; [11]): 1 mg/L (≈ 2.23 µM)
concentration at which nicked DNA is diminished by 50% (Mtb GyrBA fusion protein [7]): 10 µM
lower concentration for drop of nicked DNA to 50% in comparison with gepotidacin (Mtb GyrBA fusion protein [7]): 2.5 fold
MIC [4]: 0.5 mg/L (≈ 1.12 µM)
minor population of linearized DNA (Mtb GyrBA fusion protein [8]): 10–20%
MIC (S. aureus; read-out: MIC S. aureus MDR(4)): 0.25 mg/L (≈ 0.559 µM)
MIC (S. aureus; read-out: MIC S. aureus WT(3)): 0.25 mg/L (≈ 0.559 µM)
IC50 lower than ciprofloxacin (wild-type Mtb gyrase): 12 fold
IC50 lower than gepotidacin (wild-type Mtb gyrase): 7 fold
MIC [5]: 0.12 mg/L (≈ 0.268 µM)
IC50 [3]: 0.08 µM
MIC (K. pneumoniae; K. pneumoniae 10270, VIM): 4 mg/L (≈ 8.94 µM)
MIC (K. pneumoniae; K. pneumoniae 10272, 0XA-48): 2 mg/L (≈ 4.47 µM)
MIC (K. pneumoniae; K. pneumoniae 10277, KPC-2): 2 mg/L (≈ 4.47 µM)
MIC (A. baumannii; [16]): 1 mg/L (≈ 2.23 µM)
MIC (A. baumannii; A. baumannii 10275, VIM-4, read-out: MIC): < 0.06 mg/L
MIC (E. faecium): ≤ 0.06 mg/L
Cohen's d, cell length compared to control [9]: 1.87
effect size class, cell length compared to control [9]: ∗∗∗ (very large (∗∗∗), 1.20 < d < 2.0)

COc1ccc2nccc(-n3cc(CCNCc4ccc5c(c4)OCCO5)nn3)c2n1 [BDM71404 (10b)]
solubility at 24 h (physchem [1]): 0.0669 mg/mL (≈ 160 µM)
logD (physchem [2]): 1.53
MIC (E. coli; [10]): 0.25 mg/L (≈ 0.597 µM)
MIC (E. coli; [11]): 8 mg/L (≈ 19.1 µM)
MIC (S. aureus; read-out: MIC S. aureus MDR(4)): 0.25 mg/L (≈ 0.597 µM)
MIC (S. aureus; read-out: MIC S. aureus WT(3)): 0.25 mg/L (≈ 0.597 µM)
IC50 [3]: 0.38 µM
MIC (E. faecium): ≤ 0.06 mg/L

O=C(O)c1cn(C2CC2)c2cc(N3CCNCC3)c(F)cc2c1=O [Ciprofloxacin, ciprofloxacin, reference compound]
MIC (E. coli; [13]): ≤ 0.06 mg/L
MIC (E. coli; [14]): < 0.06 mg/L
MIC (E. coli; [15]): 16 mg/L (≈ 48.3 µM)
MIC (E. coli; [11]): ≤ 0.06 mg/L
MIC [4]: 1 mg/L (≈ 3.02 µM)
MIC (S. aureus; read-out: MIC S. aureus MDR(4)): ≥ 128 mg/L
MIC [5]: 0.25 mg/L (≈ 0.754 µM)
MIC (A. baumannii; [16]): > 32 mg/L
MIC (E. faecium): ≥ 128 mg/L
Cohen's d, cell length compared to control [9]: 2.08

COc1cnc2ccc(=O)n(CCN3CCC(Nc4cnc(CO)c(Cl)c4)CC3)c2c1 [EC/11716]
MIC (Mtb): 0.17 mg/L (≈ 0.383 µM)

COc1cnc2ccc(=O)n(CCN3CCC(Nc4ccc(Cl)c(Cl)c4)CC3)c2c1 [GSK000]
IC50 (Mtb gyrase): 5.4 µM

O=c1ccc2ncc(=O)n3c2n1C[C@H]3CN1CCC(NCc2cc3c(cn2)OCCC3)CC1 [Gepotidacin, gepotidacin, reference compound]
MIC [4]: 4 mg/L (≈ 8.92 µM)
minor population of linearized DNA (Mtb GyrBA fusion protein [8]): 10–20%
MIC [5]: 0.2 mg/L (≈ 0.446 µM)
Cohen's d, cell length compared to control [9]: 2.36
effect size class, cell length compared to control [9]: ∗∗∗∗ (huge (∗∗∗∗), d > 2.0)
